# The source made the active and inactive calls. No cut-off for these calls is given here.
# Legend:
# Sitophilus oryzae [1] = experiment: Insecticidal activity against adult Sitophilus oryzae (rice weevil) in wheat grain assessed as mortality at 9.4 microl/L air at 85% EC formulation applied as fumes for 72 hr measured after 7 days by fumigation bioassay; format: functional
# Tribolium confusum [2] = experiment: Insecticidal activity against third-instar larval stage of Tribolium confusum (confused flour beetle) assessed as enlarged mitochondria with reduced quantity of cristae, lower electron dense matrix, vacuolization and rarefaction of mitochondrial matrix in the epithelial cells of epidermal layer in the integument at LC20 applied as fumes measured after 24 hr by electron microscopic analysis; format: functional, organism-based; details: Epithelial cell
# Sitophilus oryzae [3] = experiment: Insecticidal activity against adult Sitophilus oryzae (rice weevil) in wheat grain assessed as mortality at 11.3 microl/L air at 85% EC formulation applied as fumes for 72 hr measured after 7 days by fumigation bioassay; format: functional
# Tribolium confusum [4] = experiment: Insecticidal activity against larvae of Tribolium confusum (confused flour beetle) in broken wheat assessed as mortality at 9.4 microl/L air at 85% EC formulation applied as fumes for 72 hr measured after 14 days by fumigation bioassay; format: functional
# Tribolium confusum [5] = experiment: Insecticidal activity against larvae of Tribolium confusum (confused flour beetle) in broken wheat assessed as mortality at 85% EC wettable formulation applied as fumes for 72 hr measured after 14 days by fumigation bioassay; format: functional
# Tribolium confusum [6] = experiment: Insecticidal activity against larvae of Tribolium confusum (confused flour beetle) in broken wheat assessed as mortality at 4.3 microl/L air at 85% EC formulation applied as fumes for 72 hr measured after 14 days by fumigation bioassay; format: functional
# Tribolium confusum [7] = experiment: Insecticidal activity against adult Tribolium confusum (confused flour beetle) in broken wheat assessed as mortality at 85% EC dry formulation applied as fumes for 72 hr measured after 14 days by fumigation bioassay; format: functional
# Tribolium confusum [8] = experiment: Insecticidal activity against adult Tribolium confusum (confused flour beetle) in broken wheat assessed as mortality at 9.4 microl/L air at 85% EC formulation applied as fumes for 72 hr measured after 14 days by fumigation bioassay; format: functional
# Tribolium confusum [9] = experiment: Insecticidal activity against larvae of Tribolium confusum (confused flour beetle) in broken wheat assessed as mortality at 85% EC dry formulation applied as fumes for 24 hr measured after 14 days by fumigation bioassay; format: functional
# Tribolium confusum [10] = experiment: Insecticidal activity against adult Tribolium confusum (confused flour beetle) in broken wheat assessed as mortality at 11.3 microl/L air at 85% EC formulation applied as fumes for 72 hr measured after 14 days by fumigation bioassay; format: functional
# Plodia interpunctella [11] = experiment: Insecticidal activity against larvae of Plodia interpunctella (Indian meal moth ) in wheat grain assessed as mortality at 85% EC wettable formulation applied as fumes for 72 hr measured after 7 days by fumigation bioassay; format: functional
# Tribolium confusum [12] = experiment: Insecticidal activity against adult Tribolium confusum (confused flour beetle) in broken wheat assessed as mortality at 4.3 microl/L air at 85% EC formulation applied as fumes for 72 hr measured after 14 days by fumigation bioassay; format: functional
# Tribolium confusum [13] = experiment: Insecticidal activity against larvae of Tribolium confusum (confused flour beetle) in broken wheat assessed as mortality at 11.3 microl/L air at 85% EC formulation applied as fumes for 72 hr measured after 14 days by fumigation bioassay; format: functional
# Plodia interpunctella [14] = experiment: Insecticidal activity against larvae of Plodia interpunctella (Indian meal moth ) in wheat grain assessed as mortality at 85% EC dry formulation applied as fumes for 24 hr measured after 7 days by fumigation bioassay; format: functional
# Tribolium confusum [15] = experiment: Insecticidal activity against adult Tribolium confusum (confused flour beetle) in broken wheat assessed as mortality at 85% EC wettable formulation applied as fumes for 72 hr measured after 14 days by fumigation bioassay; format: functional
# Tribolium confusum [16] = experiment: (§1) Insecticidal activity against third-instar larval stage of Tribolium confusum (confused flour beetle) assessed as numerous mitochondria with few cristae, reduced electron density, matrix rarefaction and vacuolization of the mitochondrial matrix in regenerative nidi cells of the midgut at LC20 applied as fumes measured after 24 hr by electron microscopic analysis; format: functional, organism-based
# Tribolium confusum [17] = experiment: Insecticidal activity against third-instar larval stage of Tribolium confusum (confused flour beetle) assessed as vacuolization of mitochondrial matrix, nucleus with well distributed chromatin, enlarged mitochondria with few cristae, reduced electron density, matrix rarefaction in the epithelial cells of epidermal layer in the integument at LC50 applied as fumes measured after 24 hr by electron microscopic analysis; format: functional, organism-based; details: Epithelial cell
# Plodia interpunctella [18] = experiment: Insecticidal activity against larvae of Plodia interpunctella (Indian meal moth ) in wheat grain assessed as mortality at 85% EC dry formulation applied as fumes for 72 hr measured after 7 days by fumigation bioassay; format: functional
# Sitophilus oryzae [19] = experiment: Insecticidal activity against adult Sitophilus oryzae (rice weevil) in wheat grain assessed as mortality at 4.3 microl/L air at 85% EC formulation applied as fumes for 72 hr measured after 7 days by fumigation bioassay; format: functional
# Tribolium confusum [20] = experiment: as §1, with “columnar” for “regenerative nidi”; format: functional, organism-based
# Tribolium confusum [21] = experiment: Insecticidal activity against adult Tribolium confusum (confused flour beetle) in broken wheat assessed as mortality at 85% EC wettable formulation applied as fumes for 24 hr measured after 14 days by fumigation bioassay; format: functional
# Sitophilus oryzae [22] = experiment: Insecticidal activity against adult Sitophilus oryzae (rice weevil) in wheat grain assessed as mortality at 85% EC dry formulation applied as fumes for 72 hr measured after 7 days by fumigation bioassay; format: functional
# Sitophilus oryzae [23] = experiment: Insecticidal activity against adult Sitophilus oryzae (rice weevil) in wheat grain assessed as mortality at 85% EC dry formulation applied as fumes for 24 hr measured after 7 days by fumigation bioassay; format: functional
# Plodia interpunctella [24] = experiment: Insecticidal activity against larvae of Plodia interpunctella (Indian meal moth ) in wheat grain assessed as mortality at 85% EC wettable formulation applied as fumes for 24 hr measured after 7 days by fumigation bioassay; format: functional
# Tribolium confusum [25] = experiment: Insecticidal activity against third-instar larval stage of Tribolium confusum (confused flour beetle) assessed as change in the integument colour to dark in the middle area with slight effect toward both ends applied as vapour measured after 24 hr by light microscopic analysis; format: functional, organism-based
# Tribolium confusum [26] = experiment: Insecticidal activity against larvae of Tribolium confusum (confused flour beetle) in broken wheat assessed as mortality at 85% EC dry formulation applied as fumes for 72 hr measured after 14 days by fumigation bioassay; format: functional
# Tribolium confusum [27] = experiment: Insecticidal activity against adult Tribolium confusum (confused flour beetle) in broken wheat assessed as mortality at 85% EC dry formulation applied as fumes for 24 hr measured after 14 days by fumigation bioassay; format: functional
# Tribolium confusum [28] = experiment: Insecticidal activity against larvae of Tribolium confusum (confused flour beetle) in broken wheat assessed as mortality at 85% EC wettable formulation applied as fumes for 24 hr measured after 14 days by fumigation bioassay; format: functional
# Sitophilus oryzae [29] = experiment: Insecticidal activity against adult Sitophilus oryzae (rice weevil) in wheat grain assessed as mortality at 85% EC wettable formulation applied as fumes for 24 hr measured after 7 days by fumigation bioassay; format: functional
# Tribolium confusum [30] = experiment: Insecticidal activity against third-instar larval stage of Tribolium confusum (confused flour beetle) assessed as morphological changes in anterior, posterior and middle regions of midgut with attatched malphigian tubules applied as vapours measured after 24 hr by light microscopy; format: functional, organism-based
# Sitophilus oryzae [31] = experiment: Insecticidal activity against adult Sitophilus oryzae (rice weevil) in wheat grain assessed as mortality at 85% EC wettable formulation fumigated for 72 hr applied as fumes after 7 days by fumigation bioassay; format: functional
# Tribolium confusum [32] = experiment: Insecticidal activity against larvae of Tribolium confusum (confused flour beetle) in broken wheat assessed as mortality at 5 mg/l applied as fumes for 72 hr measured after 14 days by fumigation bioassay; details: in Triticum aestivum
# Sitophilus oryzae [33] = experiment: whole plant or invertebrate; details: in Triticum aestivum
# Tribolium confusum [34] = experiment: Insecticidal activity against adult Tribolium confusum (confused flour beetle) in broken wheat assessed as mortality at 5 mg/l applied as fumes for 72 hr measured after 14 days by fumigation bioassay; details: in Triticum aestivum
structure (smiles),measurement,setting,value
C=CCN=C=S [ALLYL ISOTHIOCYANATE],mortality,Sitophilus oryzae [1],100%
same,Activity,Tribolium confusum [2],Active
same,mortality,Sitophilus oryzae [3],100%
same,mortality,Tribolium confusum [4],93%
same,LC50,Tribolium confusum [5],5.5 uL/L
same,LC95,Tribolium confusum [5],9.9 uL/L
same,mortality,Tribolium confusum [6],48%
same,LC50,Tribolium confusum [7],3.7 uL/L
same,LC95,Tribolium confusum [7],6.6 uL/L
same,mortality,Tribolium confusum [8],100%
same,LC50,Tribolium confusum [9],7.3 uL/L
same,mortality,Tribolium confusum [10],100%
same,LC50,Plodia interpunctella [11],2.3 uL/L
same,LC95,Plodia interpunctella [11],5 uL/L
same,mortality,Tribolium confusum [12],70%
same,mortality,Tribolium confusum [13],100%
same,LC50,Plodia interpunctella [14],3.5 uL/L
same,LC95,Plodia interpunctella [14],7.7 uL/L
same,LC50,Tribolium confusum [15],4.2 uL/L
same,LC95,Tribolium confusum [15],7.8 uL/L
same,Activity,Tribolium confusum [16],Active
same,Activity,Tribolium confusum [17],Active
same,LC50,Plodia interpunctella [18],2.2 uL/L
same,LC95,Plodia interpunctella [18],4.1 uL/L
same,mortality,Sitophilus oryzae [19],100%
same,Activity,Tribolium confusum [20],Active
same,LC50,Tribolium confusum [21],5.5 uL/L
same,LC95,Tribolium confusum [21],12.8 uL/L
same,LC50,Sitophilus oryzae [22],2 uL/L
same,LC95,Sitophilus oryzae [22],3.4 uL/L
same,LC50,Sitophilus oryzae [23],2.6 uL/L
same,LC95,Sitophilus oryzae [23],4.7 uL/L
same,LC50,Plodia interpunctella [24],3.7 uL/L
same,LC95,Plodia interpunctella [24],8.7 uL/L
same,Activity,Tribolium confusum [25],Active
same,LC50,Tribolium confusum [26],4.7 uL/L
same,LC95,Tribolium confusum [26],9.5 uL/L
same,LC50,Tribolium confusum [27],4.7 uL/L
same,LC95,Tribolium confusum [27],9.3 uL/L
same,LC50,Tribolium confusum [28],7.1 uL/L
same,LC50,Sitophilus oryzae [29],2.7 uL/L
same,LC95,Sitophilus oryzae [29],4.2 uL/L
same,Activity,Tribolium confusum [30],Active
same,LC50,Sitophilus oryzae [31],2.2 uL/L
same,LC95,Sitophilus oryzae [31],3.7 uL/L
P [PHOSPHINE],mortality at 5 µg/mL,Tribolium confusum [32],100%
same,mortality at 5 µg/mL,Sitophilus oryzae [33],100%
same,mortality at 5 µg/mL,Tribolium confusum [34],100%
